According to publication PMC11076555, “Dishevelled2 activates WGEF via its interaction with a unique internal peptide motif of the GEF” (Communications Biology, 2024):

Key:
[1] = biological target: T1, Dvl2^PDZ (PDZ domain of human Dishevelled2) (Homo sapiens, UniProt O14641); assay: Microscale thermophoresis (MST) binding to Dvl2^PDZ; conditions: compared with wild-type WGEF^pep, triplicates
T1 construct: introducing a stop codon after C354 residue of Dvl2^PDZ to eliminate the fused peptide, cloned at the C-termini of PDZ; 6xHis (N, cleaved yes); host or cells: E. coli Rosetta (DE3)
T1 sequence (O14641 267-339 limits assumed): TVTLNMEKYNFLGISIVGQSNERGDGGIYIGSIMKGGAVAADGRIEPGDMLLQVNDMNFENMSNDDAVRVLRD
Procedure: MST experiments were performed using Monolith NT.115 instrument from Nanotemper technologies. Dvl2^PDZ domain was fluorescently labelled as per the instructions, using Monolith Redmaleimide 2nd generation-cysteine reactive label. The experimental condition consists of 10 mM Tris–HCl pH8, 150 mM NaCl, 2 mM DTT, 5% Glycerol and 0.05% Tween20. For Dvl2^PDZ-peptide affinity determination, synthetic WGEF peptides were serially diluted (1:2) 16 times, starting from an approximate concentration of 3.4 mM. 50 nM of fluorescently labelled Dvl2^PDZ domain was added to the serially diluted peptides, followed by incubation at 25 °C for 30 minutes. Thermophoresis signals were recorded at 20% of excitation power and 40% MST at 25 °C. Data was fitted using the Kd fit model in the MO. Affinity Analysis v2.3 software. Like peptides, hWGEF (330–581) protein was serially diluted to obtain a protein concentration range of 138–0.0042 µM. Experimental conditions were the same as mentioned above for peptides. All MST experiments were done in triplicates.
Guanine nucleotide exchange assays were performed in triplicates. Fluorescence decrease was fitted using a single exponential decay mode in GraphPad Prism. All results are reported with standard deviation (±SD). Statistical significance was calculated using ordinary One-way ANOVA with multiple comparisons. * Represents adjust P value with statistical significance of ****P < 0.0001, ***P < 0.001, **P < 0.01 and […]. MST assays were performed in triplicates. Data was fitted using the Kd fit model in the MO. Affinity Analysis v2.3 software. All results are reported with standard deviation (±SD). MD simulation runs for apo and peptide docked Dvl2^PDZ were performed in triplicates. Plots reported from MD simulation studies are represented with standard deviation (±SD).

[2] = system: Dvl2^PDZ–WGEF interaction; assay: In vitro guanine nucleotide exchange (GEF) assay, peptide competition with Dvl2^PDZ-activated xWGEF330; type: biochemical, Xenopus laevis (xWGEF), human (hDvl2^PDZ; conditions: 200 µM peptide, 50 µM Dvl2^PDZ, 5 µM xWGEF330, 2 µM Mant-GDP loaded RhoA, 30 min at 25 °C, fluorescence 360/440 nm, triplicates
Procedure: Guanine nucleotide exchange assays were carried out using RhoA loaded with fluorescently labelled Mant-GDP[63],[64]. Briefly, 150 μM of RhoA was incubated with 5 Molar excess of fluorescent label, i.e., Mant-GDP in a buffer containing 10 mM Tris pH 8, 150 mM NaCl, 2 mM DTT, 5 mM EDTA, 0.5 mM MgCl2 and 5% Glycerol. The reaction was incubated on ice for 30 min, followed by the addition of 10 mM MgCl2 to stop the reaction. Excess Mant-GDP was removed through buffer exchange and Mant-GDP loaded RhoA was concentrated and stored at −80 °C. For assays, 2 μM of Mant-GDP loaded RhoA was incubated with 5 μM of xWGEF in the presence or absence of hDvl2^PDZ (0 μM, 25 μM and 50 μM) for 30 min at 25 °C. […] Once the fluorescence was stable, excess GTP (10x of labelled GTPase) was added to start the exchange reaction. […] A decrease in fluorescence was recorded using a BioTek Cytation5 plate reader with excitation and emission of 360 and 440 nm, respectively. Fluorescence was normalized and decrease was fitted using a single exponential decay mode in GraphPad Prism. […]
Guanine nucleotide exchange assays were performed in triplicates. Fluorescence decrease was fitted using a single exponential decay mode in GraphPad Prism. […]

Effect of alanine substitution on WGEF^pep–Dvl2^PDZ interaction (in words) [1]	Sequence	Effect of peptide on GEF (nucleotide exchange) activity of Dvl2^PDZ-activated xWGEF330 [2]
completely abolishes	GSTFSLAQDIP [WGEF^pepW7A, alanine variant of WGEF^pep, …]	
completely abolishes	GSTFSLWQAIP [WGEF^pepD9A, alanine variant of WGEF^pep, …]	decrease in the exchange activity of WGEF, but not to an extent brought out by the wild-type WGEF^pep
completely abolishes	GSTFSLWQDIA [WGEF^pepP11A, alanine variant of WGEF^pep, …]	
